Data taken from patent US20090105305A1, “Therapeutic Agents - 550” (AstraZeneca AB, priority 2006, published 2009).

Target: T1, human Fatty Acid Synthase (Homo sapiens, UniProt P49327)
T1 construct: made in house
Test: Human FAS enzyme assay (decrease in NADPH fluorescence)
Type: biochemical
Conditions: % inhibition at a concentration of 100 micromolar
How it was run: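 In-house human FAS (0.4 μg) was preincubated 15 min at RT with compound and NADPH (added at 166.6 μM) in 0.1 M Tris pH 7.5, 1 mM glutathione, 0.05% BSA. Malonyl-/acetyl-CoA (500/150 μM in substrate mix) was then added for 60 min. Readout was NADPH fluorescence loss (ex 340/em 460) over a time-zero read, with IC50 from a sigmoid fit.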

T1 sequence (P49327 whole entry): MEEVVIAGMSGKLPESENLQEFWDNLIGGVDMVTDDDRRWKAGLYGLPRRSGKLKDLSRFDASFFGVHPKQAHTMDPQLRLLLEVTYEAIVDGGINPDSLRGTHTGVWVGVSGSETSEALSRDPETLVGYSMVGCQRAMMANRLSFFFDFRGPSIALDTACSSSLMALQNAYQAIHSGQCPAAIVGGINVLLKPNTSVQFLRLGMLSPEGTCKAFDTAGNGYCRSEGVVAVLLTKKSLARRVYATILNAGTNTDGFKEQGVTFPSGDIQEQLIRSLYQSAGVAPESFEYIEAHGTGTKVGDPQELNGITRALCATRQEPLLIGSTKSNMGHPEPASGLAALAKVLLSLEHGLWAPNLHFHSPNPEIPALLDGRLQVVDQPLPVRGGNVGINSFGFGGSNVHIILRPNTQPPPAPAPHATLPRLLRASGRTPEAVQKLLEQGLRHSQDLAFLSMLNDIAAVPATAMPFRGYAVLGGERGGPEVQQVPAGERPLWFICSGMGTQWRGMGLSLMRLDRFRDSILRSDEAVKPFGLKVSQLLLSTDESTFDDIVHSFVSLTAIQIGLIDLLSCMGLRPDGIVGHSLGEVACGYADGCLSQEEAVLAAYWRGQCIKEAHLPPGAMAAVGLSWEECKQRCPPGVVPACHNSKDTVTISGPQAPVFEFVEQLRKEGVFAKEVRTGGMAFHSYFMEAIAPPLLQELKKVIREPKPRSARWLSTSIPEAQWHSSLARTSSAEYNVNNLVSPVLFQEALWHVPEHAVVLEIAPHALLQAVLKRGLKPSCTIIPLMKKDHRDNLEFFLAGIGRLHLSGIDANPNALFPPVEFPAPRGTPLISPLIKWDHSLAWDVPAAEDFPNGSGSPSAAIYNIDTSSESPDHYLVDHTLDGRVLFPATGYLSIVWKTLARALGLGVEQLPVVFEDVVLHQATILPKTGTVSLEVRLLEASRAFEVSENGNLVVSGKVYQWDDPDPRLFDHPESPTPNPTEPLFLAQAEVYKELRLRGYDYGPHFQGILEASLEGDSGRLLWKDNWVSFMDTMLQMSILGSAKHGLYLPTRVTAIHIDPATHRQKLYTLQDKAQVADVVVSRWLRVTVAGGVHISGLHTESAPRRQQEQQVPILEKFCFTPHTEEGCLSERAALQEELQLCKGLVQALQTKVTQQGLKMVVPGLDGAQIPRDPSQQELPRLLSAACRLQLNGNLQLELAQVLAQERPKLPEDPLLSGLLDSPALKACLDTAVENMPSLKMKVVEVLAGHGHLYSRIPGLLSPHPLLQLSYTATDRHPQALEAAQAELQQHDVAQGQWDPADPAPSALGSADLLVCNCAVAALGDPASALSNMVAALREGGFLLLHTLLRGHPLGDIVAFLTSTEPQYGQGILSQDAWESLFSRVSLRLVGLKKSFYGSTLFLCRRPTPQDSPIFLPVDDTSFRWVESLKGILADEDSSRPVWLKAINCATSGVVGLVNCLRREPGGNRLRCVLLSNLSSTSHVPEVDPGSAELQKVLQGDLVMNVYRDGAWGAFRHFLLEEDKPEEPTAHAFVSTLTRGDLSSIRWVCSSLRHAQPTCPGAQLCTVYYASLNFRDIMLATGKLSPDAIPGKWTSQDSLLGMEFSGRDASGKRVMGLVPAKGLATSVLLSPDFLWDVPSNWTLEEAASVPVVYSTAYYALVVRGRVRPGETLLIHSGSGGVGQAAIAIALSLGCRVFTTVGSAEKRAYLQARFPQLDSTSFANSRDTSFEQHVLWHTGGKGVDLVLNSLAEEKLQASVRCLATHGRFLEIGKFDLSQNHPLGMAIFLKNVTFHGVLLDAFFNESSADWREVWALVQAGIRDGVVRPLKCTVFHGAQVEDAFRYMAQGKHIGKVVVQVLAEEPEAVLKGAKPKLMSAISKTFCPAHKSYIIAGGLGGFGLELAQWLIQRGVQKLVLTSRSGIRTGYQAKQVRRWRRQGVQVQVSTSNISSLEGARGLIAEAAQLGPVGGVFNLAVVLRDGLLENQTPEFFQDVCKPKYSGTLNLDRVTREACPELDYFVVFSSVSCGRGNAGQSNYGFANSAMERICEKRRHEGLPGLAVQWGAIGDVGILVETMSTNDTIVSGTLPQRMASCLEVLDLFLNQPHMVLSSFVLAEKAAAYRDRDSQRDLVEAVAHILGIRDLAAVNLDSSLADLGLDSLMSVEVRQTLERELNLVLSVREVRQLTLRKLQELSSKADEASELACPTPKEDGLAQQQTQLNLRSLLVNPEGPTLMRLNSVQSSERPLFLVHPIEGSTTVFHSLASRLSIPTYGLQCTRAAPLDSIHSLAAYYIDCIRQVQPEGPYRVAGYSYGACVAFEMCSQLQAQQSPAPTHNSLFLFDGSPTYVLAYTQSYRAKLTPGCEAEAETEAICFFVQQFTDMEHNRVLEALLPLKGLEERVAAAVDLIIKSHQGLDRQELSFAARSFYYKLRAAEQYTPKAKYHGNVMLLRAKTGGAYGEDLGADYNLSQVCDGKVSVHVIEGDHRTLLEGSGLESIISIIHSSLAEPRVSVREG

| Structure (SMILES) | inhibition at 100 µM |
| --- | --- |
| Cc1ccc(C(=O)N2CCC(c3ccc(C#N)cc3)CC2)cc1NS(=O)(=O)CCc1ccccc1 [Example 202, N-[5-[4-(4-cyanophenyl)piperidine-1-carbonyl]-2-methylphenyl]-2-phenylethanesulfonamide] | 90% |
| CS(=O)(=O)Nc1cccc(C(=O)N2CCC(c3ccc(C#N)cc3)CC2)c1 [Example 203, N-[3-[4-(4-cyanophenyl)piperidine-1-carbonyl]phenyl]methanesulfonamide] | 71% |
| Cc1ccc(C(=O)N2CCC(c3ccc(C(=O)N(C)C)cc3)CC2)cc1NS(=O)(=O)Cc1ccccc1 [Example 204, 4-[1-[3-(benzylsulfonylamino)-4-methylbenzoyl]piperidin-4-yl]-N,N-dimethylbenzamide] | 78% |
| Cc1ccc(C(=O)N2CCC(c3ccc(C#N)cc3)CC2)cc1NS(=O)(=O)CCCO [Example 205, N-[5-[4-(4-cyanophenyl)piperidine-1-carbonyl]-2-methylphenyl]-3-hydroxypropane-1-sulfonamide] | 75% |
| Cc1ccc(C(=O)N2CCC(c3ccc(C#N)cc3)CC2)cc1NS(=O)(=O)c1ccccc1C(=O)N(C)C [Example 206, 2-[[5-[4-(4-cyanophenyl)piperidine-1-carbonyl]-2-methylphenyl]sulfamoyl]-N,N-dimethylbenzamide] | 76% |
| Cc1ccc(C(=O)N2CCC(c3ccc(C#N)cc3)CC2)cc1NS(=O)(=O)c1ccccc1C(=O)NCCO [Example 207, 2-[[5-[4-(4-cyanophenyl)piperidine-1-carbonyl]-2-methylphenyl]sulfamoyl]-N-(2-hydroxyethyl)benzamide] | 75% |
| Cc1ccc(C(=O)N2CCC(c3ccc(C#N)cc3)CC2)cc1NS(=O)(=O)c1ccccc1C(=O)NC(C)C [Example 208, 2-[[5-[4-(4-cyanophenyl)piperidine-1-carbonyl]-2-methylphenyl]sulfamoyl]-N-propan-2-ylbenzamide] | 75% |
| Cc1ccc(C(=O)N2CCC(c3ccc(C#N)cc3)CC2)cc1NS(=O)(=O)C(F)(F)F [Example 209, N-[5-[4-(4-cyanophenyl)piperidine-1-carbonyl]-2-methylphenyl]-1,1,1-trifluoromethane-sulfonamide] | 76% |
| CS(=O)(=O)Nc1cc(C(=O)N2CCC(c3ccc(C#N)cc3)CC2)ccc1S(C)(=O)=O [Example 210, N-[5-[4-(4-cyanophenyl)piperidine-1-carbonyl]-2-methylsulfonylphenyl]methanesulfonamide] | 91% |
| C[S+]([O-])c1ccc(C(=O)N2CCC(c3ccc(C#N)cc3)CC2)cc1NS(=O)(=O)Cc1ccccc1 (centres unmarked) [Example 211, N-[5-[4-(4-cyanophenyl)piperidine-1-carbonyl]-2-methylsulfinylphenyl]-1-phenylmethanesulfonamide] | 92% |
| Cc1ccc(C(=O)N2CCC(c3ccc(C#N)cc3)CC2)cc1NS(=O)(=O)CC#N [Example 212, 1-cyano-N-[5-[4-(4-cyanophenyl)piperidine-1-carbonyl]-2-methylphenyl]methanesulfonamide] | 69% |

More lines, now with the values ahead:

| inhibition at 100 µM | Structure (SMILES) |
| --- | --- |
| 71% | Cc1ccc(C(=O)N2CCC(c3ccc(F)cc3)CC2)cc1NS(C)(=O)=O [Example 213, N-[5-[4-(4-fluorophenyl)piperidine-1-carbonyl]-2-methylphenyl]methanesulfonamide] |
| 85% | Cc1ccc(C(=O)N2CCC(c3ccc(C(N)=NO)cc3)CC2)cc1NS(C)(=O)=O [Example 214, N′-hydroxy-4-[1-(3-methanesulfonamido-4-methylbenzoyl)piperidin-4-yl]benzene-carboximidamide] |
| 56% | Cc1ccc(C(=O)N2CCC(O)(c3ccc(C(F)(F)F)cc3)CC2)cc1NS(C)(=O)=O [Example 215, N-[5-[4-hydroxy-4-[4-(trifluoromethyl)phenyl]piperidine-1-carbonyl]-2-methylphenyl]methanesulfonamide] |
| 89% | Cc1ccc(C(=O)N2CCC(c3ccc(Cl)cc3)CC2)cc1NS(=O)(=O)C1CCS(=O)(=O)C1 (centres unmarked) [Example 216, N-[5-[4-(4-chlorophenyl)piperidine-1-carbonyl]-2-methylphenyl]-1,1-dioxothiolane-3-sulfonamide] |
| 60% | Cc1cc(C2CCN(C(=O)c3ccc(C)c(NS(C)(=O)=O)c3)CC2)ccc1C#N [Example 217, N-[5-[4-(4-cyano-3-methylphenyl)piperidine-1-carbonyl]-2-methylphenyl]methane-sulfonamide] |
| 67% | Cc1ccc(C(=O)N2CCC(c3ccc(C#N)c(Cl)c3)CC2)cc1NS(C)(=O)=O [Example 218, N-[5-[4-(3-chloro-4-cyanophenyl)piperidine-1-carbonyl]-2-methylphenyl]methane-sulfonamide] |
| 87% | COCCOc1ccc(C2CCN(C(=O)c3ccc(C)c(NS(C)(=O)=O)c3)CC2)cc1 [Example 219, N-[5-[4-[4-(2-methoxyethoxy)phenyl]piperidine-1-carbonyl]-2-methylphenyl]methane-sulfonamide] |
| 85% | Cc1ccc(C(=O)N2CCC(c3ccc(S(=O)(=O)NCCO)cc3)CC2)cc1NS(C)(=O)=O [Example 220, N-(2-hydroxyethyl)-4-[1-(3-methanesulfonamido-4-methylbenzoyl)piperidin-4-yl]benzenesulfonamide] |
| 74% | Cc1ccc(C(=O)N2CCC(c3ccc(NS(C)(=O)=O)cc3)CC2)cc1NS(C)(=O)=O [Example 221, N-[4-[1-(3-methanesulfonamido-4-methylbenzoyl)piperidin-4-yl]phenyl]methane-sulfonamide] |
| 64% | Cc1ccc(C(=O)N2CCC(c3ccc(C(=O)NCCN(C)C)cc3)CC2)cc1NS(C)(=O)=O [Example 222, N-(2-dimethylaminoethyl)-4-[1-(3-methanesulfonamido-4-methylbenzoyl)piperidin-4-yl]benzamide] |
| 74% | Cc1ccc(C(=O)N2CCC(c3ccc(CS(C)(=O)=O)cc3)CC2)cc1NS(C)(=O)=O [Example 223, N-[2-methyl-5-[4-[4-(methylsulfonylmethyl)phenyl]piperidine-1-carbonyl]phenyl]-methanesulfonamide] |
| 108% | Cc1ccc(C(=O)N2CCC(c3ccc(C#N)cc3)CC2)cc1NS(=O)(=O)C(C)(C)Cl [Example 224, 2-chloro-N-[5-[4-(4-cyanophenyl)piperidine-1-carbonyl]-2-methylphenyl]propane-2-sulfonamide] |
| 89.1% | CCC(=O)NCc1ccc(C2CCN(C(=O)c3ccc(C)c(NS(C)(=O)=O)c3)CC2)cc1 [Example 225, N—[[4-[1-(3-methanesulfonamido-4-methylbenzoyl)piperidin-4-yl]phenyl]methyl]propanamide] |
| 81% | Cc1ccc(C(=O)N2CCC(c3ccc(CNC(=O)C(C)C)cc3)CC2)cc1NS(C)(=O)=O [Example 226, N-[[4-[1-(3-methanesulfonamido-4-methylbenzoyl)piperidin-4-yl]phenyl]methyl]-2-methylpropanamide] |
| 87.4% | CCS(=O)(=O)NCc1ccc(C2CCN(C(=O)c3ccc(C)c(NS(C)(=O)=O)c3)CC2)cc1 [Example 227, N-[[4-[1-(3-methanesulfonamido-4-methylbenzoyl)piperidin-4-yl]phenyl]methyl]ethanesulfonamide] |
